Test results taken from patent publication US20110195111A1, “AQUEOUS COMPOSITIONS AND METHODS” (NATIVIS, INC., priority 2009, published 2011).

Test system: U-87 glioblastoma cells
Experiment: U-87 glioblastoma flank tumor growth in mice
Format: in vivo
Details: U-87 flank tumors in mice, 24-day period; untreated about 650 mm^3 (FIG. 11)
Method: The ability of water exposed to a taxane signal to inhibit a glioblastoma tumor in an animal model was investigated. In this study, nine groups of 8 mice were each injected in the right flank with 7.355×10^6 U-87 glioblastoma cells, and treatment with the various modalities was begun either one day after inoculating the animals with the cells, or when the tumors reached 75-100 mm^3.
Paclitaxel was initially dissolved in a 1:1 v/v mixture of CremaphorEL and ethanol and stored at 4° C. Final dilution of the drug to a concentration of 1.5 mg/ml was made with 0.9% NaCl immediately before use. In Groups 3 and 4, the paclitaxel was administered by intravenous injection into the tail vein at a dose of 15/mg/kg animal weight on each of five consecutive days. The actual volume administered to each animal was about 0.2 ml of the above paclitaxel formulation.
Animals in Groups 5 and 6 received 20 ml/kg (or about 0.5 ml) of water exposed to taxane signal prepared as described in Section VII, with the Range 1 magnetic field. […]
For all groups, tumor volumes were measured every other day by serial caliper measurements to determine tumor width and length, and calculating an approximate tumor volume from the formula: Tumor volume=(length×width^2)/2.

With CC(=O)O[C@H]1C(=O)[C@@]2(C)[C@H]([C@H](OC(=O)c3ccccc3)[C@]3(O)C[C@H](OC(=O)[C@H](O)[C@@H](NC(=O)c4ccccc4)c4ccccc4)C(C)=C1C3(C)C)[C@]1(OC(C)=O)CO[C@@H]1C[C@@H]2O [paclitaxel] the “increase in tumor volume over the study period, untreated versus treated animals” value was “more than twice as high in untreated”.
